The values below come from patent US20020037544A1 (priority 1998, published 2002).

In experiment [1] the test system is p120 and p100. In words: p120/p100 band shift (mobility shift) by SDS-PAGE and immunoblotting in HUVEC. Type of experiment: cell-based, Human. The note with it: for p120/p100 electrophoretic mobility (band shift): 10 μM histamine, 200 nM PDB. The protocol:
(§1) Human umbilical vein endothelial cells (HUVEC), pooled donors, were from BioWhitaker and cultured in EGM on collagen-coated plastic (Falcon) according to the supplier's instructions. The cells were cultured in medium in the presence of 100 U/ml penicillin and 100 μg/ml streptomycin at 37° C. in humidified air containing 10% CO2. Routinely, stocks were maintained in 75 cm^2 flasks and split at a 1:3 ratio when almost confluent. For experimental use, cells were seeded in appropriate plasticware such that confluence was established within 2-3 days and the cells were usually used 5-6 days after seeding. Prior to experimental use, confluent monolayers of cells were equilibrated in fresh medium for at least 2 hours prior to the start of the experiment. Compounds and agents that were only soluble in Me2SO were added to the culture medium of the cells in an equal volume of CO2-and temperature-equilibrated medium containing twice the finally required concentration of compound. […] Aqueous soluble agents were added at a 1:100 dilution directly to the cultures. In all cases, appropriate vehicle controls were performed and found to have no effect.
(§2) Whole cell lysates were prepared by aspiration of culture medium and immediately replacing it with boiling hot Laemmli sample buffer (Laemmli, U. K. (1970) Cleavage of structural proteins during the assembly of the head of bacteriophage T4. Nature 227, 680-685) supplemented with 5 mM EDTA.Na4. The samples were collected and heated at 100° C. for 5 minutes. Proteins were resolved by gel electrophoresis using 8% acrylamide slab gels (Hoefer SE 600 system, 16 cm) and the buffers described (Laemmli, 1970, loc cit). Gels were run overnight at 55 V. The gels were then equilibrated for 30 minutes in buffer at 4° C. containing 48 mM Tris, 39 mM glycine, 0.03% SDS (w/v) and 20% methanol (v/v), and electrotransferred to nitrocellulose filters (Hybond ECL, Amersham) at 4° C. After Ponceau S staining, the filters were blocked in PBS containing 1% (w/v) BSA and 0.05% (v/v) Tween-20. The filters were then incubated with primary antibody, rinsed and immunoreactive bands were detected using appropriate HRP-conjugated secondary antibody and chemiluminescence (ECL, Amersham).
Incubations were performed in triplicate and analyzed in parallel. The cells were extracted in Laemmli sample buffer and proteins were resolved by SDS-PAGE. […] Other experiments have shown that this is due to the loss of phosphate from the protein on serine and threonine residues.
(§3) Cell extracts were prepared and p120 (◯) and p100 (●) were detected by immunoblotting following SDS-PAGE, FIG. 2, Panel A. The same filter was also probed with the antibody recognizing the activated forms of p42 and p44 MAP kinase (arrowheads), FIG. 2, Panel B. Equal loading of lanes was verified as in FIG. 1. […] After 60 minutes of incubation, the effect was less apparent (FIG. 2A). The kinetics paralleled those of the increase in amount of activated MAP kinase (FIG. 2B).
(§4) Cell extracts were prepared and p120 (◯) and p100 (●) were detected by immunoblotting following SDS-PAGE, FIG. 3, Panel A. The same filter was also probed with the antibody recognizing the activated forms of p42 and p44 MAP kinase (arrowheads), FIG. 3, Panel B. Equal loading lanes was verified as in FIG. 1. […] The sensitivity of the increase in amount of activated MAP kinase paralleled that of the increase in p120/p100 mobility (FIG. 3B).
To determine which receptor(s) were responsible for the p120/p100 shift, the effects of placenta derived growth factor (P/GF), a VEGFR-1-specific ligand, were examined.
On the technique in general: Immunoblotting shows a protein as a band on a membrane.

The test system of a further experiment is p42 and p44 MAP kinase. In words: immunoblot for activated forms of p42 and p44 MAP kinase in HUVEC. As to conditions: for amount of activated (phosphorylated) p42/p44 MAP kinase: 10 μM histamine, 200 nM phorbol 12,13 dibutyrate. Type of experiment: cell-based, Human. The protocol:
as §1, §2
To reveal other changes in VEGF-stimulated signalling processes, the filters were also probed with an antibody recognizing the activated forms of p42 and p44 MAP kinase.
as §3, §4
To determine which receptor(s) were responsible for the p120/p100 shift, the effects of placenta derived growth factor (P/GF), a VEGFR-1-specific ligand, were examined. Confluent monolayers of HUVECs were incubated for 5 minutes in the absence (lane labelled C) or presence of P/GF at 100 (P/GF100) or 1000 ng/ml (P/GF1000). […] In another experiment, the cells were preincubated for 30 minutes in the absence (−) or presence (+) of 5 μM of the VEGFR-2 inhibitor SU5416. […] In all cases, cell extracts were prepared and p120 (◯) and […] (●) were detected by immunoblotting following SDS-PAGE, FIGS. 4A and 4C. […]

The next experiment deals with β-catenin, p120 and p100. In words: PY20 anti-phosphotyrosine immunoprecipitation and immunoblotting. The note with it: HUVEC; for β-catenin and p120/p100 in phosphotyrosine (PY20) immunoprecipitates: 2.6 nM VEGF or 10 μM histamine 5 minutes, 100 μM pervanadate 15 minutes. In kind it is cell-based, Human.
In the next experiment the test system is HUVEC. As to conditions: 2.6 nM VEGF, 5 minutes. As for the experimental part:
Confluent monolayers of cells were fixed at room temperature for 15 minutes in 3% paraformaldehyde made up in PBS. Fixed cells were rinsed and then permeabilized by incubation with 0.5% Triton X-100 in PBS for 30 minutes. All antibodies were diluted in PBS containing 10% FCS, 0.1 M lysine, 0.3% Triton-X-100 and 0.02% azide. Incubation with antibody recognizing junction-associated protein was at 4° C. overnight followed by incubation with mouse or rabbit anti-phosphotyrosine antibody for 2 hours at room temperature. Secondary antibodies recognizing mouse and rabbit IgG conjugated to Cy3 or fluorescein, respectively, were applied together for 1 hour at room temperature. After rinsing, the samples were mounted under Citifluor and viewed with epifluorescence on a Nikon Eclipse E800 microscope. Photographs were taken using Kodak T-MAX film (400 ASA).
After 5 minutes, the cells were fixed and then stained. […] All images were from similarly timed exposures. Bar, 20 μm.

Experiment [2] relates to p120 and p100. As to conditions: HUVEC, 5 minutes; 2.6 nM VEGF, 10 μM histamine, 200 nM PDB.
Procedure: [^32P]Phosphate labelling was performed using Puck's Saline A (P-2917; Sigma, supplemented with 10 mM Hepes (Gibco), 2 mM glutamine (Gibco), 1 mM CaCl2, 1 mM MgSO4 and 0.2% (v/v) foetal calf serum. Cultures were rinsed twice with medium and then incubated with the same medium containing 100 μCi/ml of [^32P]phosphate. Labelling was for 2 hours at 37° C. in humidified air with ambient CO2.
For phosphorylation analysis, cultures of HUVECs were labelled with [^32P]orthophosphate. After appropriate treatment, the cultures were lysed in boiling SDSSB and immunoprecipitated with the anti-p120/p100 antibody as described. For quantitation of [^32P]phosphate:protein, each immunoprecipitation was from protein extracted from ˜10 cm^2 of confluent culture. For the phosphoaminoacid analysis and Cleveland maps, protein from ˜60 cm^2 of confluent cells was used per immunoprecipitation. After separation by SDS-PAGE, for quantitation of [^32P]phosphate and p120/p100, protein was transferred to nitrocellulose and [^32P]phosphate incorporated into p120/p100 was detected by autoradiography. […] The area of filter containing p120 or p100 was detected by autoradiography, excised, and protein was acid hydrolysed to release phosphoaminoacids. These were then separated in two dimensions by high voltage electrophoresis at pH 1.9 and pH 3.5 and detected by autoradiography (Boyle et al., 1991). […]
Experiment [3] concerns p120 and p100. The note with it: HUVEC, 2.6 nM VEGF, 5 minutes.
The next experiment has as its system cadherin/catenin complex. As to conditions: HUVEC, 2.6 nM VEGF, 5 minutes.
The mark [4] stands for this setting: HUVEC preincubated 30 minutes with 5 μM, then 2.6 nM VEGF 5 minutes.
The mark [5] stands for this setting: HUVEC preincubated 30 minutes with 5 μM, then 10 μM histamine 5 minutes.
The mark [6] stands for this setting: HUVEC, 100 μM pervanadate, 15 minutes.
[7] abbreviates: HUVEC, 5 minutes, P/GF at 100 or 1000 ng/ml.

“Also recorded” adds a separate entry of the source.

Procedure for cadherin/catenin complex: For analysis of the cadherin and its association with catenins, extraction and immunoprecipitations were performed at 4° C. Cultures were briefly rinsed with ice-cold PBS and then lysed in TX buffer (1% (v/v) Triton X-100, 25 mM Hepes, 2 mM EDTA, 0.1 M NaCl, 25 mM NaF, 1 mM vanadate, pH 7.6 (adjusted with NaOH), 1 mM PMSF, 10 μg/ml soybean trypsin inhibitor, 0.1 U/ml α2-macroglobulin, 10 μg/ml leupeptin). The cells were extracted into lysis buffer for 10-15 minutes and then collected after scraping the dish. The lysates were centrifuged at 14,000×g for 20 minutes. The supernatant was precleared with protein A-Sepharose (Pharmacia) for 1 hour and then incubated with primary antibody for 1 hour followed by a further 1 hour with protein A-Sepharose together with rabbit anti-mouse antibodies. After five washes in lysis buffer, immune complexes were dissociated by addition of Laemmli sample buffer followed by heating at 100° C. for 5 minutes. Protein analysis was by SDS-PAGE and immunoblotting as described above.
Procedure for β-catenin, p120 and p100: For p120/p100-specific and phosphotyrosine (PY20) protein immunoprecipitations, the cells were lysed in boiling SDSSB (1% SDS, 25 mM Hepes, 2 mM EDTA, 0.1 M NaCl, 25 mM NaF, 1 mM vanadate, pH 7.6). The lysate was then collected, heated at 100° C. for 5 minutes, cooled and diluted with four volumes of ice-cold TX buffer that contained 2.9% instead of 1% Triton X-100. Immunoprecipitation was performed as described for TX buffer extractions.
Some cells were treated for 15 minutes with 100 μM of the broad-spectrum tyrosine phosphatase inhibitor, pervanadate. Lysates of the cells were prepared by immediate extraction into a boiling solution of an SDS-based buffer containing kinase and phosphatase inhibitors, as described above.
These extracts were then immunoprecipitated with antiphosphotyrosine antibody PY20 and analyzed by immunoblotting with PY20 (FIG. 7D).

With `Cc1cc(C)c(/C=C2\C(=O)Nc3ccccc32)[nH]1` [SU5416, reference compound], the “effect on VEGF-stimulated increase in p120/p100 mobility” value in the experiment with p120 and p100 [1] (setting [4]) was “blocked”. The “effect on histamine-stimulated mobility shift in p120/p100” value with p120 and p100 [1] (setting [5]) is listed as “did not block”. Also, the “effect on VEGF-stimulated activation of MAP kinase” value in the experiment with p42 and p44 MAP kinase (setting [4]) is reported as “blocked”. For the same molecule, the “effect on histamine-stimulated activation of MAP kinase” value in the experiment with p42 and p44 MAP kinase (setting [5]) is reported as “did not block”.

With `NCCc1c[nH]cn1` [Histamine, reference compound], the “p120/p100 electrophoretic mobility (band shift)” value in the experiment on p120 and p100 [1] (HUVEC, 5 minutes, 2.6 nM VEGF) was “effective; also recorded: increased electrophoretic mobility; also recorded: produced effects”. The “amount of activated (phosphorylated) p42/p44 MAP kinase” value (from here on “amount of activated”) in the experiment with p42 and p44 MAP kinase (HUVEC, 5 minutes, 2.6 nM VEGF) is reported as “increased the amounts of phospho-MAP kinases”; in the experiment with p42 and p44 MAP kinase (HUVEC, 5 minutes, 2.6 nM VEGF, listed as histamine), “effective; also recorded: produced effects”. Moreover, the “β-catenin and p120/p100 in phosphotyrosine (PY20) immunoprecipitates” value (“β-catenin and p120/p100” below) with β-catenin, p120 and p100 is reported as “did not reveal any hint”.

Take pervanadate [reference compound]: the “mobility of p120/p100” value in the experiment with p120 and p100 [1] (setting [6]) is on record as “did not affect the mobility”. Also, in the experiment on p42 and p44 MAP kinase (setting [6]), the “activation of MAP kinase” value is recorded as “did lead to activation of MAP kinase”. The “β-catenin and p120/p100” value with β-catenin, p120 and p100 is recorded as “detected”.

Take `CCCC(=O)O[C@@H]1[C@@H](C)[C@@]2(O)[C@@H](C=C(CO)C[C@]3(O)C(=O)C(C)=C[C@@H]23)[C@@H]2C(C)(C)[C@]12OC(=O)CCC` [PDB, Phorbol-12,13-dibutyrate, reference compound]: the “p120/p100 electrophoretic mobility (band shift)” value in the experiment with p120 and p100 [1] (HUVEC, 5 minutes, 2.6 nM VEGF) is given as “increased electrophoretic mobility”. Moreover, in the experiment with p42 and p44 MAP kinase (HUVEC, 5 minutes, 2.6 nM VEGF), the “amount of activated” value is given as “without effect”.

As for VEGF, in the experiment on p120 and p100 [1] (HUVEC, 2.6 nM (100 ng/ml) VEGF), the “time at which increase in mobility of p120 and p100 was observed” value is at most 2 min; the “time for which increase in mobility of p120 and p100 was sustained” value is “up to 30 minutes”. Further, the “effect on p120/p100 mobility after 60 minutes of incubation” value in the experiment with p120 and p100 [1] (HUVEC, 2.6 nM VEGF, 60 minutes) is listed as “less apparent”. Also, the “lowest concentration with observed effect on p120/p100 mobility” value with p120 and p100 [1] (HUVEC, 5 minutes) is given as 0.1 nM. Further, the “p120/p100 electrophoretic mobility (band shift)” value in the experiment with p120 and p100 [1] (HUVEC, 5 minutes, 2.6 nM VEGF) was “migrate as faster, tighter bands; also recorded: effective; also recorded: increased electrophoretic mobility; also recorded: produced effects”. Also, at p42 and p44 MAP kinase (HUVEC, 2.6 nM VEGF, time course), the “kinetics of increase in activated MAP kinase relative to p120/p100 mobility” value was “paralleled”. Moreover, the “sensitivity of increase in activated MAP kinase relative to p120/p100 mobility” value with p42 and p44 MAP kinase (HUVEC, 5 minutes, indicated concentrations of VEGF) is listed as “paralleled”. The “amount of activated” value in the experiment on p42 and p44 MAP kinase (HUVEC, 5 minutes, 2.6 nM VEGF) was “clearly stimulated an increase; also recorded: effective; also recorded: produced effects”. The “focal contact protein tyrosine phosphorylation (PY20 immunoprecipitation)” value in the experiment with β-catenin, p120 and p100 (2.6 nM VEGF, 5 minutes) is “increased”. In the experiment on β-catenin, p120 and p100, the “β-catenin and p120/p100” value is listed as “did not reveal any hint”. Also, in the experiment with HUVEC, the “colocalization of altered phosphotyrosine staining with β-catenin staining” value is recorded as “did not colocalize”, the “phosphotyrosine striations within the cells” value was “increased” and the vinculin staining entry is “appearance of vinculin-positive striations”. The “phosphate incorporation into 30 kDa and 17 kDa V8 cleavage products of p120 and p100” value in the experiment on p120 and p100 [2] is recorded as “substantially decreased”. In addition, the “phosphotyrosine in p120 and p100” value in the experiment with p120 and p100 [3] is “not detected”. Moreover, the “amount of phosphoserine and phosphothreonine in p120 and p100” value in the experiment with p120 and p100 [3] (10 μM histamine, 200 nM PDB) is given as “decreased”. Besides, the “association of catenins with cadherins (VE-cadherin, N-cadherin, α, β and γ catenin, p120, p100)” value in the experiment on cadherin/catenin complex was “no effect on association of any members of the complex”.

B1: P/GF: placenta derived growth factor, a VEGFR-1-specific ligand, from R & D Systems (protein, UniProt P49763 19-221, looked up)
Placenta growth factor: LPAVPPQQWALSAGNGSSEVEVVPFQEVWGRSYCRALERLVDVVSEYPSEVEHMFSPSCVSLLRCTGCCGDENLHCVPVETANVTMQLLKIRSGDRPSYVELTFSQHVRCECRHSPGRQSPDMPGDFRADAPSFLPPRRSLPMLFRMEWGCALTGSQSAVWPSSPVPEEIPRMHPGRNGKKQQRKPLREKMKPERCGDAVPRR
As to B1, the “mobility shift in p120/p100” value with p120 and p100 [1] (setting [7]) is “failed to stimulate a mobility shift”. Besides, the “activation of MAP kinase” value with p42 and p44 MAP kinase (setting [7]) is listed as “did not lead to activation of MAP kinase”.
